Usually IC50 stands for the concentration that inhibits the measured activity by half. Read a high IC50 as weaker potency.

Among the data in US20100120778A1, “QUINOXALINE-BASED LXR MODULATORS” (Wyeth, priority 2008, published 2010) are IC50 values, retold here.

Test [1] has as its target T1, human LXRβ (Homo sapiens, UniProt P55055).
T1 construct: biotin (biotinylated); made in house; host or cells: E. coli
T1 sequence (P55055 1-460): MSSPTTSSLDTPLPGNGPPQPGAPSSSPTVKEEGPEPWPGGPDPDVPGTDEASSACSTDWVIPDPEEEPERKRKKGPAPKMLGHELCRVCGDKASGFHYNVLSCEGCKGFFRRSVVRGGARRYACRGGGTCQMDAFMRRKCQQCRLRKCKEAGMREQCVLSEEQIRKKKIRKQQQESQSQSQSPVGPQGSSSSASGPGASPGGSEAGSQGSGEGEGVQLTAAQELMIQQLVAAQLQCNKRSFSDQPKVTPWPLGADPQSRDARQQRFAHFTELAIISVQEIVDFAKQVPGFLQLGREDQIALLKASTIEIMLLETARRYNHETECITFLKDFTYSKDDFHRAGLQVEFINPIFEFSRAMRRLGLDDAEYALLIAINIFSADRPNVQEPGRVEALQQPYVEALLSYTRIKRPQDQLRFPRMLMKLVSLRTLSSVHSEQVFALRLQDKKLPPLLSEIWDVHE
The test can be described thus: Ligand-binding test procedure for human LXRβ (3H T0901317 tracer, flash plates). As to conditions: biotinylated hLXRβ, tracer 3H T0901317, +4° C. over night. Here is the method:
I. Ligand-Binding Test Procedure for Human LXRβ.
Receptor source: E. coli extracted from cells expressing biotinylated hLXRβ. Extract was made in a similar buffer as above, but with 50 mM TRIS.
Washed streptavidin and coated flash plates with wash buffer. Diluted receptor extract to give Bmax˜4000 cpm and add to the wells. Wrapped the plates in aluminum foil and stored them at +4° C. overnight.
(§1) Made a dilution series in DMSO of the test ligands. Made a 5 nM solution of the radioactive tracer in buffer. Mixed 250 μl diluted tracer with 5 μl of the test ligand from each concentration of the dilution series. Washed the receptor-coated flash plates. Added 200 μl per well of the ligand/radiolabel mixture to the receptor-coated flash plates. Wrapped the plates in aluminum foil and incubate at +4° C. over night.
Aspirated wells, and washed the flashed plates. Sealed the plate.
Measured the remaining radioactivity in the plate.

The target of test [2] is T2, human LXRα (Homo sapiens, UniProt Q13133).
T2 construct: biotin (biotinylated); made in house; host or cells: E. coli
T2 sequence (Q13133 1-447): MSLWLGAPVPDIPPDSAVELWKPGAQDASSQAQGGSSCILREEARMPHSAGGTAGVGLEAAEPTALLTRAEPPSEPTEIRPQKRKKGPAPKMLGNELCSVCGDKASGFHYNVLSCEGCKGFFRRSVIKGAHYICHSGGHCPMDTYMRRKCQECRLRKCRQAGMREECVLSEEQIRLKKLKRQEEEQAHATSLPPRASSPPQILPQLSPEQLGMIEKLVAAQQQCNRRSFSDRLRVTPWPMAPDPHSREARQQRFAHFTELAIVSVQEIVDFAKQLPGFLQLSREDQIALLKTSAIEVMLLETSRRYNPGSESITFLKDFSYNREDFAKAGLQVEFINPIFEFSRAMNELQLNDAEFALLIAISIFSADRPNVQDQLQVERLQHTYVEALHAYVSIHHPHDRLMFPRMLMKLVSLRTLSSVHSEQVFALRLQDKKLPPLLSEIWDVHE
The test can be described thus: Ligand-binding test procedure for human LXRα (3H T0901317 tracer, flash plates). Conditions: biotinylated hLXRα, tracer 3H T0901317, +4° C. over night. Here is the method: II. Ligand-Binding Test Procedure for Human LXRα.
Receptor source: E. coli extract from cells expressing biotinylated hLXRα. Extract was made in a similar buffer as above, but with 50 mM TRIS.
Washed streptavidin and coated flash plates with wash buffer. Diluted receptor extract to give Bmax˜4000 cpm and add to the wells. Wrapped the plates in aluminum foil and stored them at +4° C. over night.
as §1
Aspirated wells, and wash the flashed plates. Sealed the plate. Measured the remaining radioactivity in the plate.

On to `Cc1nc2cccc(C(F)(F)F)c2nc1-c1cc(Oc2cc(F)cc(S(C)(=O)=O)c2)ccc1Cl` [Example 64, 3-{2-chloro-5-[3-fluoro-5-(methylsulfonyl)phenoxy]phenyl}-2-methyl-5-(trifluoromethyl)-quinoxaline], for which the IC50 in test [1] amounted to 89 nM; in test [2], 638 nM.

`Cc1nc2cccc(Cl)c2nc1-c1ccc(-c2cccc(S(C)(=O)=O)c2)cc1` [Example 68, 5-chloro-2-methyl-3-[3′-(methylsulfonyl)biphenyl-4-yl]quinoxaline]: the IC50 in test [1] was 235 nM; in test [2], greater than 1000 nM.

In the case of `CCS(=O)(=O)c1cccc(-c2ccc(Oc3nc4cccc(Cl)c4nc3C)cc2)c1` [Example 83, 5-chloro-2-{[3′-(ethylsulfonyl)biphenyl-4-yl]oxy}-3-methylquinoxaline], the IC50 in test [1] and in test [2] was greater than 1000 nM each time.

On to `Cc1nc2c(C(F)(F)F)cccc2nc1-c1cc(Oc2ccc(S(C)(=O)=O)cc2)ccc1Cl` [Example 42, 2-{2-chloro-5-[4-(methylsulfonyl)phenoxy]phenyl}-3-methyl-5-(trifluoromethyl)quinoxaline], for which the values for the IC50 in test [1] and in test [2] were 745 nM and 1890 nM, respectively.

Regarding `Cc1nc2ccccc2nc1-c1cc(Oc2cccc(S(C)(=O)=O)c2)ccc1Cl` [Example 66, 2-{2-chloro-5-[3-(methylsulfonyl)phenoxy]phenyl}-3-methylquinoxaline], the figures for the IC50 in test [1] and in test [2] were 361 nM and greater than 1000 nM, respectively.

For `Cc1nc2c(C(F)(F)F)cccc2nc1-c1cc(Oc2cc(Cl)cc(S(C)(=O)=O)c2)ccc1Cl` [Example 60, 2-{2-chloro-5-[3-chloro-5-(methylsulfonyl)phenoxy]phenyl}-3-methyl-5-(trifluoromethyl)-quinoxaline], the IC50 in test [1] is 159 nM; in test [2], greater than 1000 nM.

As for `Cc1nc2c(C(F)(F)F)cccc2nc1-c1cc(Oc2cccc(S(C)(=O)=O)c2)ccc1Cl` [Example 36, 2-{2-chloro-5-[3-(methylsulfonyl)phenoxy]phenyl}-3-methyl-5-(trifluoromethyl)quinoxaline], the results for the half-maximal inhibitory concentration (IC50) in test [1] and in test [2] were 19.5 nM and 292 nM, respectively.

For `CCS(=O)(=O)c1cccc(Oc2ccc(Cl)c(-c3nc4cccc(C(F)(F)F)c4nc3C)c2)c1` [Example 56, 2-{2-chloro-5-[3-(ethylsulfonyl)phenoxy]phenyl}-3-methyl-5-(trifluoromethyl)quinoxaline], the IC50 in test [1] came out at 12 nM; in test [2] it was 435 nM.

As for `CCS(=O)(=O)c1cccc(-c2cccc(Oc3nc4cccc(Cl)c4nc3C)c2)c1` [Example 81, 5-chloro-2-{[3′-(ethylsulfonyl)biphenyl-3-yl]oxy}-3-methylquinoxaline], the results for the IC50 in test [1] and in test [2] were 240 nM and greater than 1000 nM, respectively.

On to `Cc1nc2c(C(F)(F)F)cccc2nc1-c1ccc(-c2cncc(S(C)(=O)=O)c2)cc1` [Example 74, 3-methyl-2-{4-[5-(methylsulfonyl)pyridin-3-yl]phenyl}-5-(trifluoromethyl)quinoxaline], for which the IC50 in test [1] and in test [2] was greater than 1000 nM in each case.

For the compound `Cc1nc2c(C(F)(F)F)cccc2nc1-c1cc(Oc2cccc(S(=O)(=O)C(C)C)c2)ccc1Cl` [Example 57, 2-(2-chloro-5-{3-[(1-methylethyl)sulfonyl]phenoxy}phenyl)-3-methyl-5-(trifluoromethyl)-quinoxaline], the IC50 turned out to be 78.9 nM in test [1] and 947 nM in test [2].

Turning to `O=S(=O)(CCCO)c1cccc(Oc2cccc(-c3cnc4cccc(C(F)(F)F)c4n3)c2)c1` [Example 11, 3-[(3-{3-[8-(trifluoromethyl)quinoxalin-2-yl]phenoxy}phenyl)sulfonyl]propan-1-ol], the IC50 was 2480 nM in test [1] and greater than 1000 nM in test [2].

With `Cc1nc2c(Cl)cccc2nc1-c1cccc(Oc2cccc(S(C)(=O)=O)c2)c1` [Example 5, 5-chloro-3-methyl-2-{3-[3-(methylsulfonyl)phenoxy]phenyl}quinoxaline], the IC50 in test [1] is 390 nM; in test [2], greater than 1000 nM.

Take `Cc1nc2c(C(F)(F)F)cccc2nc1-c1cc(Oc2cc(F)cc(S(C)(=O)=O)c2)ccc1Cl` [Example 59, 2-{2-chloro-5-[3-fluoro-5-(methylsulfonyl)phenoxy]phenyl}-3-methyl-5-(trifluoromethyl)-quinoxaline]: the IC50 was determined as 32 nM in test [1] and 249 nM in test [2].

With `Cc1nc2c(C(F)(F)F)cccc2nc1-c1cc(Oc2cccc(S(=O)(=O)CCCF)c2)ccc1Cl` [Example 75, 2-(2-chloro-5-{3-[(3-fluoropropyl)sulfonyl]phenoxy}phenyl)-3-methyl-5-(trifluoromethyl)-quinoxaline], the figures for the IC50 in test [1] and in test [2] were 287 nM and 2190 nM, respectively.

As for `Cc1nc2c(Cl)cccc2nc1Oc1ccc(-c2cccc(S(C)(=O)=O)c2)cc1` [Example 82, 5-chloro-3-methyl-2-{[3′-(methylsulfonyl)biphenyl-4-yl]oxy}quinoxaline], the IC50 in test [1] is 1030 nM; in test [2], greater than 1000 nM.

On to `Cc1nc2cccc(Cl)c2nc1-c1cccc(Oc2cccc(S(C)(=O)=O)c2)c1` [Example 10, 5-chloro-2-methyl-3-{3-[3-(methylsulfonyl)phenoxy]phenyl}quinoxaline], for which the IC50 in test [1] is 2210 nM; in test [2], greater than 1000 nM.

On to `CS(=O)(=O)c1cccc(-c2cccc(Oc3cnc4c(Cl)cccc4n3)c2)c1` [Example 78, 5-chloro-2-{[3′-(methylsulfonyl)biphenyl-3-yl]oxy}quinoxaline], for which the results for the IC50 in test [1] and in test [2] were 263 nM and greater than 1000 nM, respectively.

As to `CS(=O)(=O)c1cccc(Oc2cccc(-c3cnc4cccc(C(F)(F)F)c4n3)c2)c1` [Example 9, 2-{3-[3-(methylsulfonyl)phenoxy]phenyl}-8-(trifluoromethyl)quinoxaline], the IC50 in test [1] was 1960 nM; in test [2] it was greater than 1000 nM.

On to `CS(=O)(=O)c1cccc(Oc2cccc(-c3cnc4c(Cl)cccc4n3)c2)c1` [Example 8, 5-chloro-2-{3-[3-(methylsulfonyl)phenoxy]phenyl}quinoxaline], for which the IC50 is 1650 nM in test [1] and greater than 1000 nM in test [2].

For `Cc1nc2c(C(F)(F)F)cccc2nc1-c1cc(Oc2cccc(S(=O)(=O)CCCCl)c2)ccc1Cl` [Example 76, 2-(2-chloro-5-{3-[(3-chloropropyl)sulfonyl]phenoxy}phenyl)-3-methyl-5-(trifluoromethyl)-quinoxaline], the IC50 was 204 nM in test [1] and 401 nM in test [2].

Consider `CCS(=O)(=O)c1cccc(Oc2ccc(Cl)c(-c3nc4c(C(F)(F)F)cccc4nc3C)c2)c1` [Example 61, 3-{2-chloro-5-[3-(ethylsulfonyl)phenoxy]phenyl}-2-methyl-5-(trifluoromethyl)quinoxaline], for which the IC50 was 29 nM in test [1] and 366 nM in test [2].

With `Cc1nc2cccc(C(F)(F)F)c2nc1-c1cccc(Oc2cccc(S(C)(=O)=O)c2)c1` [Example 3, 2-methyl-3-{3-[3-(methylsulfonyl)phenoxy]phenyl}-5-(trifluoromethyl)quinoxaline], the values for the IC50 in test [1] and in test [2] were 251 nM and 1290 nM, respectively.

In the case of `Cc1nc2c(C(F)(F)F)cccc2nc1-c1cccc(Oc2cccc(S(C)(=O)=O)c2)c1` [Example 2, 3-methyl-2-{3-[3-(methylsulfonyl)phenoxy]phenyl}-5-(trifluoromethyl)quinoxaline], the IC50 in test [1] was 127 nM; in test [2], 1020 nM.

With `Cc1nc2cccc(C(F)(F)F)c2nc1-c1cc(Oc2cc(Cl)cc(S(C)(=O)=O)c2)ccc1Cl` [Example 65, 3-{2-chloro-5-[3-chloro-5-(methylsulfonyl)phenoxy]phenyl}-2-methyl-5-(trifluoromethyl)-quinoxaline], the figures for the IC50 in test [1] and in test [2] were 453 nM and greater than 1000 nM, respectively.
